US20200405752A1, “ANTITUMOR AGENT, ANTITUMOR EFFECT ENHANCER, AND ANTITUMOR KIT” (FUJIFILM Corporation, priority 2018, published 2020)
Read-outs that look alike come from different tables or passages of the source.

Key:
[1] = test system: pancreatic cancer patient; conditions: cited from earlier work
[2] = test system: human ovarian cancer cell line SK-OV-3; assay: Cell viability (CellTiter Glo) of SK-OV-3 in combination with cisplatin or carboplatin; assay type: cell-based; conditions: for viability at 0.001 µM / viability at 0.003 µM / viability at 0.01 µM / viability at 0.03 µM / viability at 0.1 µM / viability at 0.3 µM / viability at 1 µM / viability at 3 µM / viability at 10 µM / IC50: Homo sapiens; for viability at 0.001 µM / viability at 0.003 µM / viability at 0.01 µM / viability at 0.03 µM / viability at 0.1 µM / viability at 0.3 µM / viability at 1 µM / viability at 3 µM / viability at 10 µM: SK-OV-3, 72 h, 3 days; for viability at 0.001 µM: test substance 1 nM; for viability at 0.003 µM: test substance 3 nM; for viability at 0.01 µM: test substance 10 nM; for viability at 0.03 µM: test substance 30 nM; for viability at 0.1 µM: test substance 100 nM; for viability at 0.3 µM: test substance 300 nM; for viability at 1 µM: test substance 1000 nM; for viability at 3 µM: test substance 3000 nM; for viability at 10 µM: test substance 10000 nM; for IC50: SK-OV-3, SK-OV-3; for CI: SK-OV-3 Cell
From the text: On the combinational effect of the embodiment of the invention, the results of evaluation using a combination index (CI) which is a quantitative index of the combinational effect are shown. The CI can be calculated by the following equation according to Cancer Research, 2010, Vol. 70, pp. 440 to 446.
That is, in a case where the drugs to be used in combination are drug 1 and drug 2, the CI at a certain drug concentration is
CI={(cell viability in case of using drug 1 and drug 2 in combination)/100}/{[(cell viability in case of using drug 1)/100]×[(cell viability in case of using drug 2)/100]}
Evaluation of antitumor activity against human ovarian cancer cell lines ES-2 and SK-OV-3 in combination with cisplatin and carboplatin
Furthermore, the antitumor activity against human ovarian cancer-derived cell lines ES-2 and SK-OV-3 in combination with cisplatin and carboplatin was evaluated in the same manner as in Test Example 1.
Gemcitabine, cisplatin, carboplatin, and methanesulfonate of Compound A were used as test substances.
Gemcitabine hydrochloride (manufactured by Plantex Co., Ltd.) dissolved in DMSO was used as gemcitabine. Cisplatin (Cat. #039-20091, manufactured by Wako Pure Chemical Industries, Ltd.) and carboplatin (Cat. #C2043, manufactured by Tokyo Chemical Industry Co., Ltd.), each of which dissolved in McCoy's 5a medium (Cat. #16600-082, manufactured by Thermo Fisher Scientific Inc.) supplemented with 1% serum (Cat. #10437-028, manufactured by Thermo Fisher Scientific Inc.), were used as cisplatin and carboplatin, respectively.
Human ovarian cancer cell line ES-2 and SK-OV-3 cells were subcultured in 10% serum-supplemented medium. During this test, all cell cultures were carried out in a CO2 incubator (set to 37° C. and 5% CO2, saturated with water vapor). ES-2 cells were diluted with 10% serum-supplemented medium to a cell density of 10000 cells/well/100 μL and SK-OV-3 cells were diluted with 10% serum-supplemented medium to a cell density of 15000 cells/well/100 μL, and then seeded on a 96-well plate. On the next day, the culture supernatant of each well was discarded, followed by washing twice with 150 μL of 1% serum-supplemented medium, and 100 μL of 1% serum-supplemented medium was added thereto, followed by culturing for 3 days.
The methanesulfonate of Compound A and gemcitabine were dissolved in DMSO to prepare 100 mmol/L DMSO solutions thereof. The thus-prepared DMSO solutions were diluted sequentially with DMSO to prepare DMSO solutions having a final treatment concentration of 1000-fold dilution. […] […] Compound A and gemcitabine were used with a maximum concentration of 10 μmol/L at a common ratio of 1/3 and 9 concentrations in combination with cisplatin or Carboplatin.
20 μL of Compound A or gemcitabine diluted with the cisplatin solution (60 μmol/L) or the Carboplatin solution (600 μmol/L) was added to each well. In addition, a group in which only a solvent containing no drug was added to wells in which cells were seeded (positive control), and a group in which only a solvent containing no drug was added to wells containing only a medium (negative control) were provided. All groups were set to n=3 well.
The cells were cultured for 3 days after the addition of the drug, and the cell viability was evaluated using a CellTiter Glo (registered trademark) Reagent (Cat. #G7570, manufactured by Promega Corporation) with the intracellular ATP level as an index. The concentration that inhibits cell viability by 50% (IC50 value) was calculated using XLFit software Ver.3 (registered trademark, manufactured by CTC Laboratory Systems Corporation).
The cell viability of each well was determined with the luminescence signal level of the negative control being 0% cell viability and the luminescence signal level of the positive control being 100% cell viability. The average value and standard deviation of the cell viability of each treatment group were calculated to prepare Tables 3 to 6.

[3] = orally administered to mice; cited from earlier work
[4] = SK-OV-3, with carboplatin 30 μmol/L
[5] = SK-OV-3, with cisplatin 10 μmol/L
[6] = used in combination with cisplatin (10 μmol/L, Table 4)

| IC50 [2, 6] [nM] | Structure (SMILES) | viability at 0.001 µM [2, 4] [%] | viability at 0.003 µM [2, 4] [%] | viability at 0.01 µM [2, 4] [%] | viability at 0.03 µM [2, 4] [%] | viability at 0.1 µM [2, 4] [%] | viability at 0.3 µM [2, 4] [%] | viability at 1 µM [2, 4] [%] | viability at 3 µM [2, 4] [%] | viability at 10 µM [2, 4] [%] | viability at 0.001 µM [2, 5] [%] | viability at 0.003 µM [2, 5] [%] | viability at 0.01 µM [2, 5] [%] | viability at 0.03 µM [2, 5] [%] | viability at 0.1 µM [2, 5] [%] | viability at 0.3 µM [2, 5] [%] | viability at 1 µM [2, 5] [%] | viability at 3 µM [2, 5] [%] | viability at 10 µM [2, 5] [%] | CI ([2]; combination with Carboplatin) | also measured |
| --- | --- | --- | --- | --- | --- | --- | --- | --- | --- | --- | --- | --- | --- | --- | --- | --- | --- | --- | --- | --- | --- |
| 3800 | Nc1ccn([C@@H]2O[C@H](CO)[C@@H](O)C2(F)F)c(=O)n1 [Gemcitabine] | 90 | 90 | 88 | 86 | 83 | 82 | 81 | 80 | 76 | 82 | 84 | 84 | 83 | 83 | 83 | 79 | 59 | 30 | 1.0 | median survival time ([1]; combination with cisplatin): 7.5 months; response rate ([1]; combination with cisplatin): 11.5%; median survival time ([1]; combination with oxaliplatin): 5.7 months; response rate ([1]; combination with oxaliplatin): 9%; IC50 value ([2]; SK-OV-3, used in combination with carboplatin (30 μmol/L, Table 5)): could not be calculated; CI ([2]; combination with Cisplatin): 1.1 |
| 82.2 | Nc1ccn([C@@H]2S[C@H](CO)[C@@H](O)[C@@H]2F)c(=O)n1 [Compound A, 1-(2-deoxy-2-fluoro-4-thio-β-D-arabinofuranosyl)cytosine] | 90 | 88 | 84 | 82 | 80 | 73 | 41 | 20 | 17 | 83 | 82 | 81 | 76 | 43 | 14 | 11 | 10 | 10 | 0.3 | antitumor activity [3]: potent antitumor activity; IC50 ([2]; used in combination with carboplatin (30 μmol/L, Table 5)): 676 nM; CI ([2]; combination with Cisplatin): 0.2 |
